# According to PubChem BioAssay AID1996:
# Conditions: buffer; pH 7.4; 200.0 µM
row,SMILES,solubility kinetic
1,O=C(COC(=O)c1cccnc1Cl)c1ccc(F)cc1,42.7 µg/mL
2,CC(=O)Nc1ccc(NC(=O)Nc2ccccc2C)cc1,1.8 µg/mL
3,COc1ccc2c(c1OC)C(=O)OC2Nc1nc2ccccc2s1 (stereo unspecified),50.4 µg/mL
4,CCCCNCc1cc2ccccc2o1.Cl,31.7 µg/mL
5,CN(C)CCCCOc1ccccc1F.O=C(O)C(=O)O,17.2 µg/mL
6,C=CCN(C(=O)Nc1ccc2c(c1)nc(C)n2C)c1ccccc1,> 48.1 µg/mL
7,CC(CNS(=O)(=O)c1ccccc1)Sc1ncccn1 (stereo unspecified),> 46.4 µg/mL
8,CCCS(=O)(=O)N1CCCC(C(=O)Oc2ccc(Cl)cc2)C1 (stereo unspecified),1.5 µg/mL
9,Cc1nnc(SCC(=O)NC2CC2)s1,> 34.4 µg/mL
10,O=C(CSc1ncnc2ccccc12)NCC(=O)c1ccccc1,7.1 µg/mL
11,Cc1cc(NC(=O)COC(=O)c2ccccc2O)no1,7.9 µg/mL
12,Clc1ccc(OCCN2CCOCC2)cc1,28.7 µg/mL
13,CC1CN(C(=O)COC(=O)c2ccc3ncsc3c2)CC(C)O1 (stereo unspecified),> 50.2 µg/mL
14,CC(=O)N1CCc2[nH]c3ccc(C)cc3c2C1,> 34.2 µg/mL
15,CCN(CC)Cc1cc(O)c(CN(CC)CC)cc1O,> 42.1 µg/mL
16,CC(=O)SCC[N+](C)(C)C.[Cl-],29.4 µg/mL
17,CC(=O)Nc1ccc(C(=O)Nc2cc(C)on2)cc1,> 38.9 µg/mL
18,O=C(Nc1ncccn1)c1cc(-c2ccc(F)cc2)nc2ccccc12,44.5 µg/mL
19,O=C(CCc1ccccc1)Nc1ccc2c(c1)OCO2,26.6 µg/mL
20,COc1ccc(NC(=O)N2CCCCCC2)c(OC)c1,> 41.8 µg/mL
21,CCOc1cccc2cc(C(=O)N3CCOCC3)c(=O)oc12,> 45.5 µg/mL
22,CC(=O)NCCc1ccc(C(=O)COC(=O)c2cccn2C)cc1,> 49.3 µg/mL
23,CC(=O)N/C(=C\c1ccccc1)C(=O)OCc1ccc(C)cc1,> 46.4 µg/mL
24,Nc1ccccc1N1C(=O)c2cccc3cccc(c23)C1=O,4.3 µg/mL
25,CSc1ccccc1NC(=O)c1ccccc1,28.8 µg/mL

row,SMILES,solubility kinetic
1,O=C(NCCO)/C(=C\c1ccco1)NC(=O)c1ccco1,35 µg/mL
2,CCOc1ccccc1C(=O)Nc1c[nH]c(=O)[nH]c1=O,2.4 µg/mL
3,Cn1c(=O)c(-c2ccccc2[N+](=O)[O-])c(Cl)c2ccccc21,1.2 µg/mL
4,CC(=O)Nc1sc2c(c1C(N)=O)CCN(Cc1ccccc1)C2.Cl,> 54.9 µg/mL
5,Cc1ccc(NC2Sc3ccccc3NC2=O)cc1 (stereo unspecified),9.6 µg/mL
6,Fc1ccc(-c2nc(-c3cnccn3)no2)c(Cl)c1,3.5 µg/mL
7,COc1ccc(NC(=O)/C(C#N)=C/c2ccc[nH]2)c(OC)c1,0.3 µg/mL
8,Cc1ccc(NC(=O)c2ccc(CSc3ccccn3)cc2)c(O)c1,1 µg/mL
9,COc1ccc(C(=O)N/C(=C\c2ccc(SC)cc2)C(=O)NCCCn2ccnc2)cc1OC,12.3 µg/mL
10,CN(CCOc1ccc(F)cc1)Cc1ccccc1.O=C(O)C(=O)O,34.6 µg/mL
11,COc1ccc(CNC(=O)COC(=O)C(CCSC)N2C(=O)c3ccccc3C2=O)cc1 (stereo unspecified),> 68.5 µg/mL
12,CC1CCN(S(=O)(=O)c2cccc3cccnc23)CC1,41.8 µg/mL
13,CCNC(=O)CC1C(=O)N(c2ccccc2)C(=O)N1CCOC (stereo unspecified),> 47.9 µg/mL
14,O=C1CSC(c2ccncc2)N1Cc1ccc(F)cc1 (stereo unspecified),> 43.3 µg/mL
15,O=C(O)c1ccccc1N1C(=O)c2cccc3cccc(c23)C1=O,> 47.6 µg/mL
16,O=C(Nc1nc(-c2ccc(F)c(F)c2)cs1)Nc1ccc(F)cc1F,< 0.3 µg/mL
17,CC1CCN(S(=O)(=O)c2ccccc2)CC1,25.8 µg/mL
18,Cn1c(=O)c(C(=O)NCc2ccccc2)c(O)c2ccccc21,< 0.3 µg/mL
19,Cc1ccc(C)c(OC(=O)C2CSC3(C)CCC(=O)N23)c1C (stereo unspecified),44.2 µg/mL
20,O=C(O)c1ccc(NC(=O)C2(c3ccccc3)CCCC2)cc1,> 46.4 µg/mL
21,Nc1c2c(nn1-c1ccccc1)CCC2,> 29.9 µg/mL
22,CCOc1ncccc1C(=O)NCc1ccccc1Cl,33.1 µg/mL
23,CC(=O)c1cccc(Nc2nc(-c3sc(C)nc3C)cs2)c1,1 µg/mL
24,Cc1ccc(NCc2ccc(O)c3ncccc23)cc1,5 µg/mL
25,O=C(COC(=O)c1ccc(Br)o1)NCC1CCCCC1,> 51.6 µg/mL

row,SMILES,solubility kinetic
1,COc1ccc(S(=O)(=O)NCCCN2CCCC2=O)c(OC)c1,> 51.4 µg/mL
2,O=C(c1cc2cc(Cl)ccc2o1)N1CCCC1,29.6 µg/mL
3,CCN1CCN(c2ccc(N)c(C)c2)CC1,28.7 µg/mL
4,COc1ccc(C2=C(c3ccc([N+](=O)[O-])cc3)C(=O)OC2)cc1,3.4 µg/mL
5,O=S(=O)(NCc1ccccc1)c1cccc2nsnc12,44.2 µg/mL
6,O=c1[nH]cc(S(=O)(=O)Nc2ccc3c(c2)OCO3)c(=O)[nH]1,> 46.7 µg/mL
7,O=c1[nH]c(=O)n(C2OC(CO)C(O)C2O)cc1Br (stereo unspecified),> 48.5 µg/mL
8,Cc1ccc(S(=O)(=O)N(C)C)cc1NC(=O)C1CCC1,39.7 µg/mL
9,CCOC(=O)c1ccc(Nc2ncccc2[N+](=O)[O-])cc1,1 µg/mL
10,CCOc1ccc(C(=O)CCC(=O)Nc2ccncc2)cc1,42.9 µg/mL
11,COc1cccc(C(=O)N2CCOCC2)c1,32.5 µg/mL
12,COc1ccc(/C=C/C(=O)N2CCN(S(=O)(=O)c3ccccc3Br)CC2)cc1OC,13.6 µg/mL
13,CCOc1ccccc1CNCCc1ccc2c(c1)OCO2.Cl,49.6 µg/mL
14,Cc1nc(Cl)sc1C(=O)Nc1cccc(Cl)c1,34.8 µg/mL
15,C[C@H](NC(=O)c1ccc2c(c1)OCO2)c1nnc2ccccn12,> 46.5 µg/mL
16,C#CCn1cc(Cl)cc(C(=O)Nc2ccccc2)c1=O,2.1 µg/mL
17,O=C(Nc1ccccc1)Nc1ccc(NC(=O)c2ccccc2O)cc1,< 0.2 µg/mL
18,N#Cc1ccc(C(=O)Nc2ccc3ccccc3c2)cc1,0.4 µg/mL
19,COc1ccc(-c2cc(C(=O)Nc3ccccc3O)c3ccccc3n2)cc1,< 0.4 µg/mL
20,COc1cccc(CNC(=O)CCCc2cn(C)c3ccccc23)c1,6.1 µg/mL
21,O=C(CS(=O)(=O)c1ccccc1)Nc1cccnc1,> 41.4 µg/mL
22,O=C(COC(=O)CC1CC2CCC1C2)NCc1ccc(Cl)cc1 (stereo unspecified),6.2 µg/mL
23,O=C(Nc1ccccc1C(=O)N1CCCCCC1)c1ccccc1,> 48.4 µg/mL
24,CC(=O)Nc1ccc(NC(=O)COC(=O)[C@@H]2CCCN2C(=O)c2cccs2)cc1,> 62.3 µg/mL
25,Cc1ccc(NCCC(=O)c2ccccc2)cc1Cl,< 0.6 µg/mL

row,SMILES,solubility kinetic
1,CC(=O)Nc1ccc2c(c1)nc(C)n2Cc1ccccc1,> 41.9 µg/mL
2,OCc1nc2ccccc2n1Cc1ccc(Cl)cc1,28.4 µg/mL
3,Cc1cc(=O)[nH]c(SCc2cccc3cccnc23)n1,13.4 µg/mL
4,Cc1ccc(S(=O)(=O)NCCC(=O)Oc2ccc3ccc(=O)oc3c2)cc1,25.5 µg/mL
5,Brc1ccc(COc2cccc3cccnc23)cc1,2.3 µg/mL
6,N/C(=N/OC(=O)c1ccc(Cl)cc1)c1ncc([N+](=O)[O-])s1,0.2 µg/mL
7,COc1ccccc1NC(=O)Nc1ccc(C)cn1,0.8 µg/mL
8,O=C(Cn1c(=O)oc2ccccc21)Nc1ccc(F)c(F)c1,7.9 µg/mL
9,O=C(CSc1nnc(-c2ccncc2)o1)Nc1cc(Cl)ccc1C(=O)O,> 58.6 µg/mL
10,CCc1ccccc1NC(=O)CCOc1ccccc1,39 µg/mL
11,COc1cccc(NC(=O)COC(=O)C2CC2)c1,> 37.4 µg/mL
12,CC(C)c1ccc(OC(=O)c2ccc3c(=O)n4c(nc3c2)CCC4)cc1,8.3 µg/mL
13,O=C1C(c2ccccc2)NC(=S)N1C1CCCCC1 (stereo unspecified),2.4 µg/mL
14,COc1cccc(NC(=O)c2ccccc2Br)c1,> 45.9 µg/mL
15,Cc1noc(NS(=O)(=O)c2ccc(NC(=O)c3cccc(S(=O)(=O)Nc4ccccc4F)c3)cc2)c1C,71.3 µg/mL
16,N#Cc1cccc(S(=O)(=O)NCc2nnc3ccccn23)c1,> 47 µg/mL
17,CC1=C(C(=O)Nc2ccccc2)S(=O)(=O)CCO1,38 µg/mL
18,N#Cc1ccc(/C=C/C(=O)c2ccc3c(c2)OCO3)cc1,2.9 µg/mL
19,Cc1cc(C)nc(SCC(=O)c2ccc(F)cc2F)n1,> 44.1 µg/mL
20,O=C(CN1C(=O)COc2ccc(Cl)cc21)NCC1CCCO1 (stereo unspecified),> 48.7 µg/mL
21,COCC(=O)Nc1ccc(S(=O)(=O)N2CCCC2)cc1,> 44.8 µg/mL
22,Cc1nc(-c2ccccn2)nc(N2CCOCC2)c1Cl,> 43.6 µg/mL
23,COc1ccc(NC(=O)CCCC2CCCCC2)c(OC)c1,< 0.7 µg/mL
24,C/C(=N\S(=O)(=O)c1ccc(C)cc1)NC(=S)Nc1ccccc1,2.1 µg/mL
25,CCOc1ccc(Cl)cc1S(=O)(=O)N1CCC(C(=O)NCc2ccco2)CC1,3.6 µg/mL

row,SMILES,solubility kinetic
1,COc1ccc(OC)c(N/C=C/C(=O)c2ccc(OC)c(OC)c2)c1,< 0.7 µg/mL
2,COc1ccccc1CNC(=O)CCN1C(=O)c2ccccc2C1=O,> 50.8 µg/mL
3,O=C(CNC(=O)c1ccccc1Cl)OC1CCOC1=O (stereo unspecified),42.1 µg/mL
4,COc1ccc([N+](=O)[O-])cc1C(=O)C(=O)c1ccccc1,< 0.6 µg/mL
5,COCCCNc1nc2nonc2nc1N1CCN2CCCC2C1 (stereo unspecified),> 50 µg/mL
6,COC(=O)/C=C1\N/C(=N\c2nc(C)cc(C)n2)N(c2ccccc2)C1=O,> 52.7 µg/mL
7,COc1ccc(C(=O)NCCNC(=O)c2ccccn2)cc1,> 44.9 µg/mL
8,Cc1ccc(S(=O)(=O)Nc2cc3c4c(c2)CC(=O)N4CCC3)cc1,8.6 µg/mL
9,CCN1CCN(c2ccc(NC(=O)c3cnccn3)cc2)CC1,> 46.7 µg/mL
10,COc1cc(C)cc(OC)c1OCC(=O)Nc1cc(C)on1,6.4 µg/mL
11,COc1ccccc1/C=C/C(=O)NC(=S)Nc1ccccn1,1.3 µg/mL
12,Cc1ccc(S(=O)(=O)NCc2c(-c3ccccc3)noc2C)cc1,40.9 µg/mL
13,O=C(Nc1ccc(NC(=O)c2cccs2)cc1)c1ccccc1,< 0.3 µg/mL
14,O=C1CCC(C(=O)NCc2ccc3c(c2)OCO3)N1 (stereo unspecified),> 39.3 µg/mL
15,O=C(COC(=O)C1C2CC3OC(=O)C1C3C2)Nc1ccccc1 (stereo unspecified),> 47.3 µg/mL
16,CC1CCCCN1CC(=O)c1c[nH]c2ccccc12 (stereo unspecified),> 38.5 µg/mL
17,CCOC(=O)COc1cccc2c(=O)n(CC(N)=O)ccc12,24.4 µg/mL
18,CNS(=O)(=O)c1cccc(C(=O)OCC(=O)NC2CCCC(C)C2C)c1 (stereo unspecified),12.7 µg/mL
19,CCOc1ccc(S(=O)(=O)NCCC(=O)NC2CCC(C)CC2)cc1 (stereo unspecified),37.7 µg/mL
20,COc1ccc(OC)c(-c2csc(-c3cccs3)n2)c1,< 0.6 µg/mL
21,CCn1ccnc1CN1CCCC(C(=O)c2ccc(OC)cc2OC)C1 (stereo unspecified),48.7 µg/mL
